Type in all cases: cell-based
Test [1] has as its system RSV, MERS coronavirus and influenza A H1N1.
Another test deals with SARS-CoV-2. The test is described as follows: microbe, parasite or virus in culture. As to conditions: Severe acute respiratory syndrome coronavirus 2, Vero C1008; Vero E6, moi 0.05, 48 hours, TCID50.
In the next test the test system is GPCMV strain 22122. The test is described as follows: GPCMV qPCR assay in Guinea Pig Lung cells. As to conditions: Cavia porcellus, 168 h, 7 d.
For another test, the system named is Sporothrix sp. Nature of the test: Antifungal MIC (RPMI-1640 microdilution). Background: Dilution methods test growth across graded concentrations, often in twofold steps.
The next test concerns Blastomyces dermatitidis. The test is described as follows: Antifungal MIC (RPMI-1640 microdilution).
For the next test, the system named is Apophysomyces sp. The test is described as follows: Antifungal MIC (RPMI-1640 microdilution).
The test system of another test is Candida albicans. Nature of the test: Antifungal MIC (RPMI-1640 microdilution).
The subject of the next test is Emergomyces sp. The test is described as follows: Antifungal MIC (RPMI-1640 microdilution).
The next test concerns Staphylococcus aureus. The test is described as follows: Antibacterial MIC (broth microdilution).

Read-outs that look alike come from different tables or passages of the source.

What is called EC50 is the midpoint of the concentration-response curve. Consider `COc1cc(C)c2c(Oc3cccc(C(F)(F)F)c3)c(OC)cc(NC(C)CCCN)c2n1` (stereo not shown) [Tafenoquine, N(4)-[2,6-Dimethoxy-4-methyl-5-[3-(trifluoromethyl)phenoxy]quinolin-8-yl]pentane-1,4-diamine], for which, in test [1], the antiviral activity entry is on record as “too cytotoxic to the cell lines used to determine whether antiviral activity was present”. Also, the 50% effective concentration (EC50) with SARS-CoV-2 is 2600 nM; in the test with GPCMV strain 22122, > 6000 nM.
As a reminder, the MIC is the lowest concentration that inhibits growth of the organism. As to `COc1cc(C)c2c(Oc3cccc(C(F)(F)F)c3)c(OC)cc(NC(C)CCCN)c2n1.O=C(O)CCC(=O)O` (stereo not shown) [Tafenoquine Succinate], the MIC50 worked out at 2 µg/mL in the test with Sporothrix sp. (read-out: MIC 50% inhibition, isolate Sporo1); 1 µg/mL with Sporothrix sp. (read-out: MIC 50% inhibition, isolate Sporo2); 2 µg/mL in the test on Sporothrix sp. (read-out: MIC 50% inhibition, isolate Sporo3); 1 µg/mL in the test on Blastomyces dermatitidis (read-out: MIC 50% inhibition, isolate Blasto1); 4 µg/mL in the test on Blastomyces dermatitidis (read-out: MIC 50% inhibition, isolate Blasto2); 8 µg/mL in the test on Blastomyces dermatitidis (read-out: MIC 50% inhibition, isolate Blasto3). The MIC50 in the test on Apophysomyces sp. (read-out: MIC 50% inhibition, isolate Apo1) came to 8 µg/mL; in the test with Apophysomyces sp. (read-out: MIC 50% inhibition, isolate Apo2), 2 µg/mL; in the test on Apophysomyces sp. (read-out: MIC 50% inhibition, isolate Apo3), 16 µg/mL; in the test on Candida albicans (ATCC90028, read-out: MIC 50% inhibition, isolate ATCC 90028) it was 4 µg/mL; in the test with Candida albicans (read-out: MIC 50% inhibition, isolate CA3), 4 µg/mL; in the test on Candida albicans (read-out: MIC 50% inhibition, isolate SC5314), 8 µg/mL. Further, the MIC50 with Emergomyces sp. (read-out: MIC 50% inhibition, isolate Emerg2) worked out at 4 µg/mL; in the test on Emergomyces sp. (read-out: MIC 50% inhibition, isolate Emerg3), 2 µg/mL. The minimum inhibitory concentration (MIC) turned out to be 4 µg/mL in the test on Sporothrix sp. (read-out: MIC 100% inhibition, isolate Sporo1); 2 µg/mL in the test with Sporothrix sp. (read-out: MIC 100% inhibition, isolate Sporo2); 4 µg/mL in the test with Sporothrix sp. (read-out: MIC 100% inhibition, isolate Sporo3); 2 µg/mL in the test on Blastomyces dermatitidis (read-out: MIC 100% inhibition, isolate Blasto1); 4 µg/mL in the test with Blastomyces dermatitidis (read-out: MIC 100% inhibition, isolate Blasto2); 8 µg/mL with Blastomyces dermatitidis (read-out: MIC 100% inhibition, isolate Blasto3). In addition, the MIC turned out to be 8 µg/mL in the test on Apophysomyces sp. (read-out: MIC 100% inhibition, isolate Apo1); 4 µg/mL in the test with Apophysomyces sp. (read-out: MIC 100% inhibition, isolate Apo2); 32 µg/mL with Apophysomyces sp. (read-out: MIC 100% inhibition, isolate Apo3); 4 µg/mL in the test with Candida albicans (ATCC90028, read-out: MIC 100% inhibition, isolate ATCC 90028); 4 µg/mL in the test with Candida albicans (read-out: MIC 100% inhibition, isolate CA3); 8 µg/mL in the test with Candida albicans (read-out: MIC 100% inhibition, isolate SC5314). In addition, the MIC in the test on Emergomyces sp. (read-out: MIC 100% inhibition, isolate Emerg2) was found to be 4 µg/mL; in the test on Staphylococcus aureus (Staphylococcus aureus, ATCC29213, isolate ATCC 29213, read-out: MIC) it was 8 µg/mL; in the test on Staphylococcus aureus (Staphylococcus aureus, isolate 6215, read-out: MIC), 8 µg/mL; in the test with Staphylococcus aureus (isolate 6229), 8 µg/mL. Also, the “MIC 100% inhibition” value against Emergomyces sp. (isolate Emerg3) turned out to be 4 µg/mL.

The record behind these values is patent US12691107B2, “Methods for the treatment and prevention of lung infections caused by gram-positive bacteria, fungus, or virus by administration of tafenoquine” (priority 2020, dated 2026).
